Measurements: US20070129342A1, “Compositions Containing Ansamycin” (priority 2005, published 2007)
Read-outs that look alike come from different tables or passages of the source.

Experiments:
[1] = type: physicochemical
Procedure: It should be noted that other secondary emulsifiers (e.g., dimyristylphosphatidylglycerol (DMPG), Solutol HS15, and Tween 80) were tested at refrigerated temperature for droplet size stability improvement.

[2] = adult patients, cited from earlier work; for Cmax: read-out: Plasma Cmax

For `CCCCCCCCCCCCCC(=O)OCC(COP(=O)(O)OCC(O)CO)OC(=O)CCCCCCCCCCCCC` (centres unmarked) [DMPG, dimyristylphosphatidylglycerol], which “effect of secondary emulsifier on droplet size stability of the emulsion” value (from here on “effect of secondary emulsifier”) [1] is on record?
The value was “resulted in a viscous emulsion that would be difficult to draw a syringe”.

With `C=CCNC1=C2C[C@@H](C)C[C@H](OC)[C@H](O)[C@@H](C)/C=C(\C)[C@H](OC(N)=O)[C@@H](OC)/C=C\C=C(/C)C(=O)NC(=CC1=O)C2=O` [Formulation 17-AAG, 17-(allylamino)-17-demethoxygeldanamycin] as the compound, how does the Cmax ([2]; at 40 mg/m^2) read?
The Cmax was 1860 ± 660 nM.

And the Cmax ([2]; at 56 mg/m^2)?
The Cmax was 3170 ± 1310 nM.

What about the “maximum tolerated dose (MTD)” value ([2]; daily 1-hour infusion for 5 days every three weeks) of the same compound?
Its value is 40 mg/m^2.

What about the clearance ([2]; mean±SD) of the same compound?
The clearance was 41.0 ± 13.5 L/h.

What about the terminal half-life ([2]; mean±SD) of the same compound?
The terminal half-life was 2.5 ± 0.5 h.

With `CCCCCCCC/C=C\CCCCCCCC(=O)O` [oleic acid, cis-9-octadecenoic acid] as the compound, how does the “effect of secondary emulsifier” value [1] read?
The value was “showed improved stability”.

For Tween 80, which “effect of secondary emulsifier” value [1] is on record?
Its value is “did not improve the droplet size stability”.
